Measured values published in patent publication US10660877B2 (BRISTOL-MYERS SQUIBB COMPANY, priority 2016, dated 2020).
Like-named read-outs stand apart in the source and are kept apart here.

Legend:
human TLR7 = human TLR7 (Homo sapiens (Human), UniProt Q9NYK1); assay: TLR7 inhibition reporter assay (HEK-Blue cells, SEAP reporter, gardiquimod stimulation); type: cell-based
human TLR9 = human TLR9 (Homo sapiens (Human), UniProt Q9NR96); assay: TLR9 inhibition reporter assay (HEK-Blue cells, SEAP reporter, ODN2006 stimulation);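 note: compounds tested over 0.05 nM to 50 µM, 22 h incubation, inhibition taken as SEAP signal drop from agonist plus DMSO wells toward a known inhibitor control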
human TLR9, sequence (Q9NR96 26-1032): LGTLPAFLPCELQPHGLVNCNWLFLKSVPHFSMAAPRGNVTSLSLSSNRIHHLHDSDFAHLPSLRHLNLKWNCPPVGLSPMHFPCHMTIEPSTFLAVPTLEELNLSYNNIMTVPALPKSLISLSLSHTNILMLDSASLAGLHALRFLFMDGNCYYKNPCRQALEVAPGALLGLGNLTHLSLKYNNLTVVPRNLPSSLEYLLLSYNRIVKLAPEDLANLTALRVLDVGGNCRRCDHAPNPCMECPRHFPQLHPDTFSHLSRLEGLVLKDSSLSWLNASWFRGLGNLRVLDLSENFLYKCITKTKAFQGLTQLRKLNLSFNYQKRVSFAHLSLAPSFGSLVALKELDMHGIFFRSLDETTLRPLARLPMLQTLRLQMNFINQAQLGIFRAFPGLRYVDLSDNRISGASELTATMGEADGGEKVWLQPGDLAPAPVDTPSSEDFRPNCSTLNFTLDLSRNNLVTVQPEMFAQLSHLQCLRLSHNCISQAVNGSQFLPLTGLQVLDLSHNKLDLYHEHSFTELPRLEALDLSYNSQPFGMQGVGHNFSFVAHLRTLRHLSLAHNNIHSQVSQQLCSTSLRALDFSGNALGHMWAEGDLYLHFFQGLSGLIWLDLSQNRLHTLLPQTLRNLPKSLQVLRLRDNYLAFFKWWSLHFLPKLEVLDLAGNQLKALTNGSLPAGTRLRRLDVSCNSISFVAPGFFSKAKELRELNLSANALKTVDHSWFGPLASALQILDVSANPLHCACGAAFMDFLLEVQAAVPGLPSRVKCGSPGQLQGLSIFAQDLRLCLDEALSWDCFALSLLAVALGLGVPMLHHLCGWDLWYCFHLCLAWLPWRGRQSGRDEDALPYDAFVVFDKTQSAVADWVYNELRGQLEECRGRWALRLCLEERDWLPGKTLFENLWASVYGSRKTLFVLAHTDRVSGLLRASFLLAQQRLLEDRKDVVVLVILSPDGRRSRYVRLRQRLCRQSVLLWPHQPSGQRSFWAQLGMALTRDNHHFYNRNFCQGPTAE

human TLR8 = human TLR8 (Homo sapiens (Human), UniProt Q9NR97); assay: TLR8 inhibition reporter assay (HEK-Blue cells, SEAP reporter, R848 stimulation);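 note: compounds tested from 0.05 nM to 50 µM, 22 h at 37 °C, SEAP measured with HEK-Blue Detection, inhibition relative to agonist plus DMSO versus a known inhibitor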
human TLR8, sequence (Q9NR97 27-1041): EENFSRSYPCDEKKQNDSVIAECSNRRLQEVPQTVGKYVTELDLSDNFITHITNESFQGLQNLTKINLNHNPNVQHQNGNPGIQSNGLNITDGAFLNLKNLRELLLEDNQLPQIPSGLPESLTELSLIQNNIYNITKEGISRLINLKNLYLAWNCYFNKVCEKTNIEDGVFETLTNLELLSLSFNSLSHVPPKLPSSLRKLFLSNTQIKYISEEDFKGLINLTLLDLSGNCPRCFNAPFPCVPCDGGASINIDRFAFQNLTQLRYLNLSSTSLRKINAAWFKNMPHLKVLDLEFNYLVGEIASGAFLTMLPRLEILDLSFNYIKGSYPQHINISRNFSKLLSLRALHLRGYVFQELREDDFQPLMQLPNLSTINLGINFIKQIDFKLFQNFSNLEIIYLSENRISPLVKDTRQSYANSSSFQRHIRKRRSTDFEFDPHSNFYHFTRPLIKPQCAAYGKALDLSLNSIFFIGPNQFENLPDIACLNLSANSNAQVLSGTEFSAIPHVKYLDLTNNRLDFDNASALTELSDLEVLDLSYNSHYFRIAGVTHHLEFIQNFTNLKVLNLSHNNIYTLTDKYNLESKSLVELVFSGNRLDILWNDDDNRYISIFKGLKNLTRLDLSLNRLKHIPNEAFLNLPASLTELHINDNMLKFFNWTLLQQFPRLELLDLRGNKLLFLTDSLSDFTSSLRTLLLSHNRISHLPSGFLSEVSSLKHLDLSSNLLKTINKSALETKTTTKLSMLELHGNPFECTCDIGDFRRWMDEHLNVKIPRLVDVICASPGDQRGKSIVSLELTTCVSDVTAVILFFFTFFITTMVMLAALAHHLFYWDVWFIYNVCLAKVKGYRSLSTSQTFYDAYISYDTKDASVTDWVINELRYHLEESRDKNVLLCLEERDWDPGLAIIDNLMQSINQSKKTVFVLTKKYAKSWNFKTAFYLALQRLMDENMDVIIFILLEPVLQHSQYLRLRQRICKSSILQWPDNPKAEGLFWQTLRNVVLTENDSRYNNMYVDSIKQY

[1] = HEK-Blue cells overexpressing human TLR7, gardiquimod 7.5 μM
[2] = read-out: TLR9 IC50, HEK-Blue cells overexpressing human TLR9, ODN2006 5 nM
[3] = read-out: TLR8 IC50, HEK-Blue cells overexpressing human TLR8, R848 15.9 μM
[4] = HEK-Blue cells, gardiquimod 7.5 μM
[5] = read-out: TLR9 IC50, HEK-Blue cells, ODN2006 5 nM
[6] = read-out: TLR8 IC50, HEK-Blue cells, R848 15.9 μM
[7] = TLR9 IC50, HEK-Blue cells overexpressing human TLR9, ODN2006 5 nM
[8] = TLR8 IC50, HEK-Blue cells overexpressing human TLR8, R848 15.9 μM

human TLR7, sequence (Q9NYK1 27-1049): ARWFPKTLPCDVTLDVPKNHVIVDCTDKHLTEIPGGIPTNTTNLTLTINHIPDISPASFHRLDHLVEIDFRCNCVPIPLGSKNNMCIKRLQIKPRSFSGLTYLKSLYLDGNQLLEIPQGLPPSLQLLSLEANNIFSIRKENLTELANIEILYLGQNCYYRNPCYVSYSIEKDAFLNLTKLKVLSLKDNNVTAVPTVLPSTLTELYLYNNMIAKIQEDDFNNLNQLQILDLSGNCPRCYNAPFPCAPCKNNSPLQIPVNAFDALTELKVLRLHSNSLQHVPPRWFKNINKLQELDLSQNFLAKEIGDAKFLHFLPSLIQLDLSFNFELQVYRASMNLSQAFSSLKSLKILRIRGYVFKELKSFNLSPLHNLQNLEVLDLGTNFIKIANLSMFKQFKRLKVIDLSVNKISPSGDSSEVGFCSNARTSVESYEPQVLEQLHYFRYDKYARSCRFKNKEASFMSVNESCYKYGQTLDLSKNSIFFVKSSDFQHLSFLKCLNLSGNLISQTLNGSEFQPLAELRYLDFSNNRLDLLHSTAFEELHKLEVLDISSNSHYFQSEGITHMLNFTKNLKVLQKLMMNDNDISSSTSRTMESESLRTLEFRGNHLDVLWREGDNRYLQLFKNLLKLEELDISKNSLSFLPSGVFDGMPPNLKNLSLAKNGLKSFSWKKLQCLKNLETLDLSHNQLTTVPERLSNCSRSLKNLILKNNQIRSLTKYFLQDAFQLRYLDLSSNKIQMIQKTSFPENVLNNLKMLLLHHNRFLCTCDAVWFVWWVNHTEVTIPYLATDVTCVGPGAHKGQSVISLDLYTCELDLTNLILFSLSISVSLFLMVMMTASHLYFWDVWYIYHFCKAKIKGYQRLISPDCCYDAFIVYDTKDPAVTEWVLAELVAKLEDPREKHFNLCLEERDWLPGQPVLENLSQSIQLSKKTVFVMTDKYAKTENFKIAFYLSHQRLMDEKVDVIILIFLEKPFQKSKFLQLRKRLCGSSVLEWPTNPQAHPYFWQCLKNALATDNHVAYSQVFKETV

Row | Structure (SMILES) | IC50 (human TLR7; [1]) | IC50 (human TLR9; [2]) | IC50 (human TLR8; [3]) | IC50 (human TLR7; [4]) | IC50 (human TLR9; [5]) | IC50 (human TLR8; [6]) | IC50 (human TLR9; [7]) | IC50 (human TLR8; [8])
1 | CCc1c(-c2cc(C)nc(C)c2)[nH]c2ccc(C3CCN(CC(=O)NC)CC3)cc12 [Example 527, 2-(4-(2-(2,6-dimethylpyridin-4-yl)-3-ethyl-1H-indol-5-yl)piperidin-1-yl)-N-methylacetamide] | 54.1 nM | 608 nM | 63.6 nM |  |  |  |  | 
2 | Cc1cnccc1-c1[nH]c2ccc(C3CCNCC3)cc2c1C(C)C [Example 23, 3-isopropyl-2-(3-methylpyridin-4-yl)-5-(piperidin-4-yl)-1H-indole] | 97 nM | 8790 nM | 32.3 nM |  |  |  |  | 
3 | Cc1cc(-c2[nH]c3ccc(C4CCN(C(C)C)CC4)cc3c2C(C)C)ccn1 [Example 869, 3-isopropyl-5-(1-isopropylpiperidin-4-yl)-2-(2-methylpyridin-4-yl)-1H-indole] |  |  |  | 13.2 nM | 803 nM | 12.3 nM |  | 
4 | CCc1c(-c2ccnc(OC)c2)[nH]c2ccc(C3CCN(CCNC)CC3)cc12 [Example 778, 2-(4-(3-ethyl-2-(2-methoxypyridin-4-yl)-1H-indol-5-yl)piperidin-1-yl)-N-methylethan-1-amine] | 330 nM | 1940 nM | 100 nM |  |  |  |  | 
5 | CCc1c(-c2ccnc(-c3nnc[nH]3)c2)[nH]c2ccc(C3CCNCC3)cc12 [Example 66, 2-(2-(4H-1,2,4-triazol-3-yl)pyridin-4-yl)-3-ethyl-5-(piperidin-4-yl)-1H-indole] | 1230 nM | 554 nM | 159 nM |  |  |  |  | 
6 | CCc1c(-c2ccnc(C)c2)[nH]c2ccc(C3CCN(C[C@@H]4CCCN4)CC3)cc12 [Example 740, (S)-3-ethyl-2-(2-methylpyridin-4-yl)-5-(1-(pyrrolidin-2-ylmethyl)piperidin-4-yl)-1H-indole] | 67.9 nM |  |  |  |  |  | 111 nM | 6 nM
7 | Cc1cc(-c2[nH]c3ccc(C4CCN(C5CCOC(C)(C)C5)CC4)cc3c2C(C)C)ccn1 (stereo not drawn) [Example 719, 5-(1-(2,2-dimethyltetrahydro-2H-pyran-4-yl)piperidin-4-yl)-3-isopropyl-2-(2-methylpyridin-4-yl)-1H-indole] | 23.9 nM | 638 nM | 5.2 nM |  |  |  |  | 
8 | CCc1c(-c2ccnc(C)c2)[nH]c2ccc(C3CCN(CC(O)CN(C)C(C)C)CC3)cc12 (stereo not drawn) [Example 877, 1-(4-(3-ethyl-2-(2-methylpyridin-4-yl)-1H-indol-5-yl)piperidin-1-yl)-3-(isopropyl(methyl)amino)propan-2-ol] |  |  |  | 30.6 nM | 16 nM | 2.9 nM |  | 
9 | Cc1cc(-c2[nH]c3ccc(C4CCN(C)CC4)cc3c2CC(F)F)cc(C)n1 [Example 539, 3-(2,2-difluoroethyl)-2-(2,6-dimethylpyridin-4-yl)-5-(1-methylpiperidin-4-yl)-1H-indole] | 23.3 nM | 4820 nM | 81.2 nM |  |  |  |  | 
10 | CCS(=O)(=O)N1CCC(c2ccc3[nH]c(-c4ccnc(C)c4)c(C(C)C)c3c2)CC1 [Example 549, 5-(1-(ethylsulfonyl)piperidin-4-yl)-3-isopropyl-2-(2-methylpyridin-4-yl)-1H-indole] | 55.6 nM | > 50000 nM | 164 nM |  |  |  |  | 
11 | Cc1cc(-c2[nH]c3ccc(C4CCNCC4)cc3c2C(C)C)cc(N2CCN(C)CC2)n1 [Example 480, 3-isopropyl-2-(2-methyl-6-(4-methylpiperazin-1-yl)pyridin-4-yl)-5-(piperidin-4-yl)-1H-indole] | 2880 nM | 707 nM | 7060 nM |  |  |  |  | 
12 | CCc1c(-c2ccnc(C)c2)[nH]c2ccc(C3CCN(C(=O)NC4CCN(C(=O)C(F)(F)F)CC4)CC3)cc12 [Example 846, 4-(3-ethyl-2-(2-methylpyridin-4-yl)-1H-indol-5-yl)-N-(1-(2,2,2-trifluoroacetyl)piperidin-4-yl)piperidine-1-carboxamide] |  |  |  | 1590 nM | > 50000 nM | 1540 nM |  | 
13 | Cc1nccc(-c2[nH]c3ccc(C4CCN(C(=O)C5CC(=O)N(C)C5)CC4)cc3c2C(C)C)c1F (stereo not drawn) [Example 582, 4-(4-(2-(3-fluoro-2-methylpyridin-4-yl)-3-isopropyl-1H-indol-5-yl)piperidine-1-carbonyl)-1-methylpyrrolidin-2-one] | 30.1 nM | > 50000 nM | 48 nM |  |  |  |  | 
14 | Cc1cnc(N)cc1-c1[nH]c2ccc(C3CCNCC3)cc2c1C(C)C [Example 9, 4-(3-isopropyl-5-(piperidin-4-yl)-1H-indol-2-yl)-5-methylpyridin-2-amine] | 75.1 nM | 562 nM | 22.1 nM |  |  |  |  | 

More lines, in order of falling IC50 (human TLR7; [1]), values ahead:

Row | IC50 (human TLR7; [1]) | IC50 (human TLR9; [2]) | IC50 (human TLR8; [3]) | IC50 (human TLR7; [4]) | IC50 (human TLR9; [5]) | IC50 (human TLR8; [6]) | IC50 (human TLR9; [7]) | IC50 (human TLR8; [8]) | Structure (SMILES)
15 | 22.5 nM |  |  |  |  |  | 2250 nM | 47.7 nM | Cc1cc(-c2[nH]c3ccc(C4CCN(CC(=O)NCC(C)(C)C)CC4)cc3c2C(C)C)cc(C)n1 [Example 219, 2-(4-(2-(2,6-dimethylpyridin-4-yl)-3-isopropyl-1H-indol-5-yl)piperidin-1-yl)-N-neopentylacetamide]
16 | 15.1 nM | 731 nM | 24.1 nM |  |  |  |  |  | Cc1cc(-c2[nH]c3ccc(C4CCN(C(=O)[C@@H]5CCC[C@H](N)C5)CC4)cc3c2C(C)C)ccn1 [Example 576, ((1R,3S)-3-aminocyclohexyl)(4-(3-isopropyl-2-(2-methylpyridin-4-yl)-1H-indol-5-yl)piperidin-1-yl)methanone]
17 | 13.6 nM | 548 nM | 10.7 nM |  |  |  |  |  | Cc1cc(-c2[nH]c3ccc(C4CCNCC4)cc3c2CC2CC2)ccn1 [Example 89, 3-(cyclopropylmethyl)-2-(2-methylpyridin-4-yl)-5-(piperidin-4-yl)-1H-indole]
18 | 3.6 nM | 425 nM | 11.3 nM |  |  |  |  |  | CCCNCC(=O)N1CCC(c2ccc3[nH]c(-c4cc(C)nc(C)c4)c(C(C)C)c3c2)CC1 [Example 348, 1-(4-(2-(2,6-dimethylpyridin-4-yl)-3-isopropyl-1H-indol-5-yl)piperidin-1-yl)-2-(propylamino)ethan-1-one]
19 | 3.1 nM | 497 nM | 13 nM |  |  |  |  |  | CCN(CC)CC(=O)N1CCC(c2ccc3[nH]c(-c4cc(C)nc(C)c4)c(C(C)C)c3c2)CC1 [Example 99, 2-(diethylamino)-1-(4-(2-(2,6-dimethylpyridin-4-yl)-3-isopropyl-1H-indol-5-yl)piperidin-1-yl)ethan-1-one]
20 | 2.8 nM |  |  |  |  |  | 315 nM | 7 nM | Cc1cc(-c2[nH]c3ccc(C4CCN(CC(=O)N5CCC(F)(F)C5)CC4)cc3c2C(C)C)cc(C)n1 [Example 216, 1-(3,3-difluoropyrrolidin-1-yl)-2-(4-(2-(2,6-dimethylpyridin-4-yl)-3-isopropyl-1H-indol-5-yl)piperidin-1-yl)ethan-1-one]
21 | 2.7 nM | 355 nM | 4 nM |  |  |  |  |  | Cc1cc(-c2[nH]c3ccc(C4CCN(CC5(CO)COC5)CC4)cc3c2C(C)C)cc(C)n1 [Example 319, (3-((4-(2-(2,6-dimethylpyridin-4-yl)-3-isopropyl-1H-indol-5-yl)piperidin-1-yl)methyl)oxetan-3-yl)methanol]
22 | 1.4 nM | 147 nM | 3.2 nM |  |  |  |  |  | Cc1cc(-c2[nH]c3ccc(C4CCN(CCC(N)=O)CC4)cc3c2C(C)C)cc(C)n1 [Example 314, 3-(4-(2-(2,6-dimethylpyridin-4-yl)-3-isopropyl-1H-indol-5-yl)piperidin-1-yl)propanamide]
